# Key:
# [1] = Surface tension by pendant-drop technique (CMC and surface properties); assay type: physicochemical
# Procedure: The surface tension of the unsaturated surfactant in SW and FW at different temperatures was analyzed using a Biolin Scientific Attension instrument. The pendant-drop technique was used to measure the surface tension at 30° C. and 60° C. Other surface properties such as CMC, surface tension at CMC (γcmc), surfactant ability at lower surface tension (πcmc), maximum surface access (Γmax), and minimum area per molecule (Amin) were also obtained from the surface tension data. These surface properties were calculated using Eqs. 1-3,
# (§1) where γ0 is the surface tension of the brine (FW or SW), NA is the Avogadro number, dγ/dlnC is the slope below CMC in the surface tension plot, C is the surfactant concentration in brine, T is temperature, R is the gas constant, and n=1 for zwitterionic surfactants [Wang, Y., Zhang, Y., Liu, X., Wang, J., Wei, L., & Feng, Y. (2014) Effect of a hydrophilic head group on Krafft temperature, surface activities and rheological behaviors of Erucyl Amidobetaines. Journal of Surfactants and Detergents, 17:295-301—incorporated herein by reference]. The interfacial tension between crude oil and water was measured using a spinning drop tensiometer from Kruss (SITE 100). All the reported points are the average equilibrium values.
# Variations in the surface tension of the unsaturated surfactant with concentration at different temperatures and salinities are summarized in FIG. 7. […] The CMC and surface tension corresponding to the CMC (γcmc) were estimated from the breakpoint in surface tension versus concentration plots. […] A similar reduction in CMC with increasing NaCl concentration was reported for the alkyl amidosulfobetaine surfactant [Feng, Y., & Chu, Z. (2016) Correlating surface activity with structural and environmental parameters for alkylamidosulfobetaine surfactants. Colloid and Polymer Science, 294:957-963, incorporated herein by reference in its entirety]. However, in this disclosure, the reduction in the CMC was observed when SW was replaced with FW. The reduction in the CMC could be associated with the salting-out effect of the unsaturated surfactant hydrophobic tail, which got enhanced by increasing the salinity [Feng, Y., & Chu, Z. (2016) Correlating surface activity with structural and environmental parameters for alkylamidosulfobetaine surfactants. Colloid and Polymer Science, 294:957-963, incorporated herein by reference in its entirety].
# [2] = Interfacial tension between crude oil and water, spinning drop tensiometer; assay type: physicochemical; conditions: for IFT after aging: after aging at 90° C. for 2 weeks
# Excerpt: API gravity and molecular weight of the oil were 30 and 251 g mol^−1, respectively.
# as §1
# Interfacial tension is one of the main parameters to assess the performance of surfactants for EOR application. Interfacial tension depends on several parameters such as the nature of the crude oil, salinity, temperature, pH, surfactant type and its molecular structure, surfactant concentration, and residence time of the surfactant inside the reservoir. […] The spinning drop tensiometer can measure ultra-low IFT down to 10^−4 mN m^−1 at various temperatures. This equipment could go up to 90° C., but it was difficult to get a stable drop due to bubble formation, therefore the IFT calculated at 90° C. might not be an accurate representation. Therefore, measuring IFT at high temperature was avoided and another strategy was adopted. Specifically, several solutions at field conditions (90° C.) were aged for 2 weeks and then their IFT was compared with that of the original solution. The water/oil IFT was initially >9 mN m^1 in both FW and SW. […] The low CMC is advantageous because the same IFT reduction can be achieved at a very low surfactant concentration. In addition, IFT will not change considerably because of surfactant adsorption. In general, no considerable change in IFT was detected within the investigated temperatures and salinities. […] Canadian Journal of Chemical Engineering, 94:454-460; and Li, P., Yang, C., Cui, Z., Song, B., Jiang, J., & Wang, Z. (2016) A new type of sulfobetaine surfactant with double alkyl polyoxyethylene ether chains for enhanced oil recovery. Journal of Surfactants and Detergents, 19:967-977, each incorporated herein by reference in their entirety]. […] Journal of Surfactants and Detergents, 20:777-788; and Hussain, S. S., Kamal, M. S., & Sultan, A. S. (2017) Amido-amine-based cationic Gemini surfactants: Thermal and interfacial properties and interactions with cationic polyacrylamide. Journal of Surfactants and Detergents, 20:47-55, each incorporated herein by reference in their entirety].
# [3] = 0.02 wt. % surfactant, FW, 60° C.
# [4] = 0.02 wt. % surfactant, SW, 30° C.
# [5] = 0.05 wt. % surfactant, FW, 60° C.
# [6] = 0.05 wt. % surfactant, SW, 30° C.
compound,measurement,setting,value
"CCCCCCCC/C=C\CCCCCCCC(=O)NCCC[N+](C)(C)CCCS(=O)(=O)[O-] [unsaturated surfactant, 3-(N-oleamidopropyl-N,N-dimethylammonium) propane sulfonate]",Amin,"[1]; FW, 60 °C",0.28 nm^2
same,CMC,"[1]; FW, 60 °C",1.53 × × 10^−4 mol L^−1
same,Γmax × 10^6,"[1]; FW, 60 °C",5.88 mol m^−2
same,γcmc,"[1]; FW, 60 °C",33.55 mN m^−1
same,πcmc,"[1]; FW, 60 °C",38.04 mN m^−1
same,Amin,"[1]; SW, 30 °C",0.22 nm^2
same,CMC,"[1]; SW, 30 °C",1.02 × × 10^−4 mol L^−1
same,Γmax × 10^6,"[1]; SW, 30 °C",7.27 mol m^−2
same,γcmc,"[1]; SW, 30 °C",30.23 mN m^−1
same,πcmc,"[1]; SW, 30 °C",41.76 mN m^−1
same,Amin,"[1]; SW, 60 °C",0.29 nm^2
same,CMC,"[1]; SW, 60 °C",2.05 × × 10^−4 mol L^−1
same,Γmax × 10^6,"[1]; SW, 60 °C",5.60 mol m^−2
same,γcmc,"[1]; SW, 60 °C",31.03 mN m^−1
same,πcmc,"[1]; SW, 60 °C",40.96 mN m^−1
same,CMC expressed as surfactant concentration,[1]; corresponding to 1.02×10^−4 mol L^−1,0.005%
same,CMC,[1]; in FW (summary b150),0.000205 mol/L
same,CMC,[1]; in SW (summary b150),0.000102 mol/L
same,CMC,[1]; in SW and FW (as worded),0.000102 mol/L
same,IFT,"[2]; 0.01 wt. % surfactant, FW, 60° C.",0.33 mN m^−1
same,IFT,"[2]; 0.01 wt. % surfactant, SW, 30° C.",0.31 mN m^−1
same,IFT,"[2]; 0.01 wt. % surfactant, SW, 60° C.",0.36 mN m^−1
same,IFT,[2]; [3],0.25 mN m^−1
same,IFT after aging,[2]; [3],0.27 mN m^−1
same,IFT,[2]; [4],0.21 mN m^−1
same,IFT after aging,[2]; [4],0.29 mN m^−1
same,IFT,"[2]; 0.02 wt. % surfactant, SW, 60° C.",0.27 mN m^−1
same,IFT,[2]; [5],0.23 mN m^−1
same,IFT after aging,[2]; [5],0.26 mN m^−1
same,IFT,[2]; [6],0.25 mN m^−1
same,IFT after aging,[2]; [6],0.29 mN m^−1
same,IFT,"[2]; 0.05 wt. % surfactant, SW, 60° C.",0.31 mN m^−1
same,IFT,"[2]; 0.075 wt. % surfactant, FW, 60° C.",0.24 mN m^−1
same,IFT,"[2]; 0.075 wt. % surfactant, SW, 30° C.",0.21 mN m^−1
same,IFT,"[2]; 0.075 wt. % surfactant, SW, 60° C.",0.30 mN m^−1
same,IFT,"[2]; 0.1 wt. % surfactant, FW, 60° C.",0.28 mN m^−1
same,IFT,"[2]; 0.1 wt. % surfactant, SW, 30° C.",0.22 mN m^−1
same,IFT,"[2]; 0.1 wt. % surfactant, SW, 60° C.",0.31 mN m^−1
same,IFT,"[2]; 0.2 wt. % surfactant, FW, 60° C.",0.27 mN m^−1
same,IFT,"[2]; 0.2 wt. % surfactant, SW, 30° C.",0.23 mN m^−1
same,IFT,"[2]; 0.2 wt. % surfactant, SW, 60° C.",0.32 mN m^−1
same,decrease in water/oil IFT on addition of surfactant,"[2]; FW and SW, initial IFT >9",almost two orders of magnitude
same,"oil/water IFT, order of magnitude",[2]; not affected much by temperature and salinity,~10^−1 mN m^−1
same,change of water/oil IFT after aging,[2]; solutions aged at 90° C. for 2 weeks,did not change
